Results taken from US20200338045A1, “ISOINDOLINE COMPOSITIONS AND METHODS FOR TREATING NEURODEGENERATIVE DISEASE” (priority 2017, published 2020).
Entries after “also recorded” stand apart in the source; their conditions may differ.

Key:
[1] = Phase 1b/2a clinical trial (COG0102): safety and tolerability; type: in vivo, human; settings: for Mild TEAEs-n (%) / Moderate TEAEs-n (%) / SAEs-n (%) / Severe TEAEs-n (%) / TEAEs-n (%): once daily 28 days
Experimental: Safety and pharmacokinetics were primary objectives of the study, with changes in molecular biomarkers and cognitive outcomes identified as an exploratory objective. […]
This trial (ClinicalTrials.gov NCT02907567) was a randomized, double-blind, placebo-controlled clinical trial in mild to moderate Alzheimer's patients (MMSE 18-26) (See FIG. 1 for clinical trial design). The trial was conducted at six sites in Australia. Patients were randomized into placebo (n=5) or CT1812-treated groups: 90 mg (n=4), 280 mg (n=5) or 560 mg (n=5) and treated once daily for 28 days. Clinical chemistry was done at Sydpath (Sydney, AU). Pharmacokinetics were done at CPR Pharma Services (Adelaide, AU). Cerebrospinal fluid samples were taken at screening and day 21-28 of treatment and aliquoted. Plasma samples were taken at screening or Day 1 (one sample) and day 14-28, then spun down to separate plasma and aliquoted. One set of CSF samples was analyzed for Alzheimer's disease biomarkers; protein measurements (Aβ42, A1340, total tau, tau phosphorylated at threonine 181 (phosphorylated tau), NFL and neurogranin) were performed using commercially available ELISA assays from Fujirebio according to the manufacturer's instructions (INNOTEST β-AMYLOID(1-42), INNOTEST β-AMYLOID(1-40), INNOTEST hTau Ag, INNOTEST PHOSPHO-TAU(181P), Uman Diagnostics NFL assay). Neurogranin was measured with a sandwich ELISA method using antibodies Ng2 and Ng22 developed at the University of Gotteborg (Kvartsberg et al. 2015). Identical aliquots of CSF, and plasma were analyzed for protein expression changes via LC/MSMS at Caprion (see below).

[2] = Phase 1 MAD safety (adverse events, laboratory, ECG); type: in vivo, human
Experimental: In Part B, healthy young subjects in each cohort received the same dose once daily for 14 days after overnight fasting. Cohort dosing started at 280 mg, followed by 560 mg and 840 mg in subsequent cohorts. In each cohort, eight subjects received drug and two received placebo. A fourth cohort of healthy elderly subjects (≥65 years old) received a 560 mg dose vs. placebo daily for 14 days (seven active, two placebo).
Subjects were dosed in the morning with 240 mL of water after an 8-hour fast, and remained in a semi-reclined position for 1 hour and fasting for 2 hours post-administration, except for the fed cohort in Part A. Subjects in each MAD cohort were confined to the clinical facility from check-in on Day 0 until the pharmacokinetic sample was collected on Day 16, 48 hours after administration of the last dose on Day 14. Subjects returned to the clinical facility for follow-up visits on Days 24 and 35.
Safety variables, including incidence of adverse events (AEs), vital signs, clinical laboratory findings, 12-lead electrocardiographs (ECGs), physical examination, and affective and cognitive measures (Part B only), were summarized for all subjects who received study drug.

CYP isoenzymes = test: Drug interaction studies
[3] = system: Aβ oligomers bound to neuronal receptors; test: Aβ oligomer binding to / displacement from neuronal receptors; type: cell-based
[4] = MAD, 280 mg, Age ≤64 yrs (n = 8)
[5] = MAD, 560 mg, Age ≤64 yrs (n = 8)
[6] = MAD, 560 mg, Age ≥65 years (n = 7)
[7] = MAD, 840 mg, Age ≤64 yrs (n = 8)

## CC(C)(C)Oc1cc(CCC(C)(C)N2Cc3ccc(S(C)(=O)=O)cc3C2)ccc1O [CT1812]
[1]; 90 mg (as in Table 3)
  Headache-n (%): 1 (25%) n (%)
  Lymphocytopenia-n (%): 0 (0%) n (%)
  Nausea-n (%): 0 (0%) n (%)
  Vomiting-n (%): 0 (0%) n (%)
[1]; 90 mg (n = 4)
  Mild TEAEs-n (%): 4 (100%) n (%)
  Moderate TEAEs-n (%): 0 (0%) n (%)
  SAEs-n (%): 0 (0%) n (%)
  Severe TEAEs-n (%): 0 (0%) n (%)
  TEAEs-n (%): 3 (75%) n (%)
[1]; 280 mg (as in Table 3)
  Headache-n (%): 0 (0%) n (%)
  Lymphocytopenia-n (%): 0 (0%) n (%)
  Nausea-n (%): 0 (0%) n (%)
  Vomiting-n (%): 0 (0%) n (%)
[1]; 280 mg (n = 5)
  Mild TEAEs-n (%): 3 (60%) n (%)
  Moderate TEAEs-n (%): 1 (20%) n (%)
  SAEs-n (%): 0 (0%) n (%)
  Severe TEAEs-n (%): 0 (0%) n (%)
  TEAEs-n (%): 4 (80%) n (%)
[1]; 560 mg (as in Table 3)
  Headache-n (%): 2 (40%) n (%)
  Nausea-n (%): 2 (40%) n (%)
  Vomiting-n (%): 2 (40%) n (%)
[1]; 560 mg (n = 5)
  Mild TEAEs-n (%): 5 (100%) n (%)
  Moderate TEAEs-n (%): 3 (60%) n (%)
  SAEs-n (%): 0 (0%) n (%)
  Severe TEAEs-n (%): 0 (0%) n (%)
  TEAEs-n (%): 5 (100%) n (%)
[1]; 90, 280 and 560 mg once daily 28 days, mild to moderate Alzheimer's patients
  safety and tolerability: generally safe and well tolerated
[1]; one participant at 560 mg, resolved by end of study, no increase in bilirubin
  ALT: ~4.7 ×ULN
[2]; 840 mg dose, two instances
  vomiting incidence: 25%
[2]; 840 mg, respiratory picornavirus infection deemed unrelated to study treatment
  serious AE (SAE): One serious AE
[2]; 280 to 840 mg QD 14 days (young), 560 mg (elderly)
  tolerability, multiple dose: safe and well tolerated
[2]; MAD
  ECG parameters or changes: No ECG parameters or changes were assessed as clinically significant
[2]; [4]
  Number of Subjects with at least one Treatment-Emergent AE: All TEAEs: 7
  Number of Subjects with at least one Treatment-Emergent AE: Dizziness: 1
  Number of Subjects with at least one Treatment-Emergent AE: Dyspepsia: 1
  Number of Subjects with at least one Treatment-Emergent AE: Headache: 2
  Number of Subjects with at least one Treatment-Emergent AE: Nausea: 1
  Number of Subjects with at least one Treatment-Emergent AE: Upper respiratory tract infection: 5
  Subjects (%) with at least one Treatment-Emergent AE: All TEAEs: (88%)
  Subjects (%) with at least one Treatment-Emergent AE: Dizziness: (13%)
  Subjects (%) with at least one Treatment-Emergent AE: Dyspepsia: (13%)
  Subjects (%) with at least one Treatment-Emergent AE: Headache: (25%)
  Subjects (%) with at least one Treatment-Emergent AE: Nausea: (13%)
  Subjects (%) with at least one Treatment-Emergent AE: Upper respiratory tract infection: (63%)
[2]; [5]
  Number of Subjects with at least one Treatment-Emergent AE: All TEAEs: 7
  Number of Subjects with at least one Treatment-Emergent AE: Catheter site phlebitis: 1
  Number of Subjects with at least one Treatment-Emergent AE: Dyspepsia: 1
  Number of Subjects with at least one Treatment-Emergent AE: Headache: 1
  Number of Subjects with at least one Treatment-Emergent AE: Procedural pain: 4
  Number of Subjects with at least one Treatment-Emergent AE: Upper respiratory tract infection: 1
  Subjects (%) with at least one Treatment-Emergent AE: All TEAEs: (88%)
  Subjects (%) with at least one Treatment-Emergent AE: Catheter site phlebitis: (13%)
  Subjects (%) with at least one Treatment-Emergent AE: Dyspepsia: (13%)
  Subjects (%) with at least one Treatment-Emergent AE: Headache: (13%)
  Subjects (%) with at least one Treatment-Emergent AE: Procedural pain: (50%)
  Subjects (%) with at least one Treatment-Emergent AE: Upper respiratory tract infection: (13%)
[2]; [6]
  Number of Subjects with at least one Treatment-Emergent AE: All TEAEs: 5
  Number of Subjects with at least one Treatment-Emergent AE: Back pain: 1
  Number of Subjects with at least one Treatment-Emergent AE: Dizziness: 1
  Number of Subjects with at least one Treatment-Emergent AE: Headache: 3
  Subjects (%) with at least one Treatment-Emergent AE: All TEAEs: (71%)
  Subjects (%) with at least one Treatment-Emergent AE: Back pain: (14%)
  Subjects (%) with at least one Treatment-Emergent AE: Dizziness: (14%)
  Subjects (%) with at least one Treatment-Emergent AE: Headache: (43%)
[2]; [7]
  Number of Subjects with at least one Treatment-Emergent AE: All TEAEs: 6
  Number of Subjects with at least one Treatment-Emergent AE: Back pain: 1
  Number of Subjects with at least one Treatment-Emergent AE: Catheter site phlebitis: 1
  Number of Subjects with at least one Treatment-Emergent AE: Dizziness: 1
  Number of Subjects with at least one Treatment-Emergent AE: Dyspepsia: 1
  Number of Subjects with at least one Treatment-Emergent AE: Headache: 4
  Number of Subjects with at least one Treatment-Emergent AE: Nausea: 1
  Number of Subjects with at least one Treatment-Emergent AE: Procedural pain: 2
  Number of Subjects with at least one Treatment-Emergent AE: Upper respiratory tract infection: 2
  Number of Subjects with at least one Treatment-Emergent AE: Vomiting: 2
  Subjects (%) with at least one Treatment-Emergent AE: All TEAEs: (75%)
  Subjects (%) with at least one Treatment-Emergent AE: Back pain: (13%)
  Subjects (%) with at least one Treatment-Emergent AE: Catheter site phlebitis: (13%)
  Subjects (%) with at least one Treatment-Emergent AE: Dizziness: (13%)
  Subjects (%) with at least one Treatment-Emergent AE: Dyspepsia: (13%)
  Subjects (%) with at least one Treatment-Emergent AE: Headache: (50%)
  Subjects (%) with at least one Treatment-Emergent AE: Nausea: (13%)
  Subjects (%) with at least one Treatment-Emergent AE: Procedural pain: (25%)
  Subjects (%) with at least one Treatment-Emergent AE: Upper respiratory tract infection: (25%)
  Subjects (%) with at least one Treatment-Emergent AE: Vomiting: (25%)
[2]; MAD, CT1812 (of 31 subjects)
  Treatment-emergent AEs, % of subjects: 81%
  Treatment-emergent AEs, number of subjects: 25
[2]; MAD, Total Active (n = 31)
  Number of Subjects with at least one Treatment-Emergent AE: All TEAEs: 25
  Number of Subjects with at least one Treatment-Emergent AE: Back pain: 2
  Number of Subjects with at least one Treatment-Emergent AE: Catheter site phlebitis: 2
  Number of Subjects with at least one Treatment-Emergent AE: Dizziness: 3
  Number of Subjects with at least one Treatment-Emergent AE: Dyspepsia: 3
  Number of Subjects with at least one Treatment-Emergent AE: Headache: 10
  Number of Subjects with at least one Treatment-Emergent AE: Nausea: 2
  Number of Subjects with at least one Treatment-Emergent AE: Procedural pain: 6
  Number of Subjects with at least one Treatment-Emergent AE: Upper respiratory tract infection: 8
  Number of Subjects with at least one Treatment-Emergent AE: Vomiting: 2
  Subjects (%) with at least one Treatment-Emergent AE: All TEAEs: (%81)
  Subjects (%) with at least one Treatment-Emergent AE: Back pain: (6%)
  Subjects (%) with at least one Treatment-Emergent AE: Catheter site phlebitis: (6%)
  Subjects (%) with at least one Treatment-Emergent AE: Dizziness: (10%)
  Subjects (%) with at least one Treatment-Emergent AE: Dyspepsia: (10%)
  Subjects (%) with at least one Treatment-Emergent AE: Headache: (32%)
  Subjects (%) with at least one Treatment-Emergent AE: Nausea: (6%)
  Subjects (%) with at least one Treatment-Emergent AE: Procedural pain: (19%)
  Subjects (%) with at least one Treatment-Emergent AE: Upper respiratory tract infection: (26%)
  Subjects (%) with at least one Treatment-Emergent AE: Vomiting: (6%)
[2]; MAD, improved after discontinuing CT1812
  rash: One subject developed a rash
[2]; four subjects in MAD study (including one on placebo)
  increase in liver function tests: below 3 × the upper limit of normal
CYP isoenzymes
  interactions with CYP isoenzymes: minor interactions
[3]
  displacement of Aβ oligomers from neuronal/synaptic receptors: displaces amyloid beta (Aβ) oligomers from neuronal receptors; also recorded: displace oligomers from synaptic receptor sites; also recorded: prevents and displaces binding of Aβ oligomers to neurons
